Laboratory results reported in patent publication US5248684A, “Certain 2-oxo-quinoline carboxylates or corresponding carboxamides useful as anti-emetics and suppressants of migraine” (Kyowa Hakko Kogyo Co., Ltd., priority 1990, dated 1993).

Legend:
[1] = tested on: ddY strain male mice; test: Acute toxicity (MLD, Minimum Lethal Dose); assay type: in vivo; settings: 7 days observation
Description: The test compound was orally and intraperitoneally administered to ddY strain male mice weighing 20 to 25 g. MLD (Minimum Lethal Dose) was determined by observing the mortality for 7 days after the administration.

[2] = tested on: Cisplatin-induced vomiting; test: Activity against CisPlatin-induced vomiting; assay type: in vivo, Suncus murinus; settings: 30 min before Cisplatin 40 mg/kg i.p.; for Number of Vomiting (Episodes) (mean ± S.E.M.): 5 to 120 min, control 28.0 ± 6.7; for Latency (mean ± S.E.M.): time to first vomiting, control 35.1 ± 4.4
Description: b) Activity against CisPlatin-induced vomiting
Female and male Suncus murinus animals weighing 23 to 68 g were used, one group consisting of 5 to 10 animals. According to the method of Matsuki et al. (Japan J. Pharmacol., 48, 303 (1988)], the animals were isolated in metal mesh cage (one animal/one cage). One hour after, the test compound or physiological saline (control) was intraperitoneally administered (i.p.) in a volume of 0.1 ml/10 g of body weight. Further 30 minutes after administration of the test compound, Cisplatin (40 mg/kg) was intraperitoneally administered. After administration of Cisplatin, a time period (latency) for the first vomiting and the number of frequencies (episodes) of vomiting caused in the period of 5 to 120 minutes after administration were determined. The latency and the number of frequencies in the test compound administered group were compared with those in the control group. The test of significance was performed by Student's t-test.

| Compound | MLD (Minimum Lethal Dose) ([1]; i.p.) [mg/kg] | MLD (Minimum Lethal Dose) ([1]; p.o.) [mg/kg] | Number of Vomiting (Episodes) (mean ± S.E.M.) ([2]; 0.1 mg/kg i.p.) | Latency (mean ± S.E.M.) ([2]; 0.1 mg/kg i.p.) [min] | Number of Vomiting (Episodes) (mean ± S.E.M.) ([2]; 0.5 mg/kg i.p., *p < 0.05) | Latency (mean ± S.E.M.) ([2]; 0.5 mg/kg i.p., *p < 0.05) [min] |
| --- | --- | --- | --- | --- | --- | --- |
| CCCCn1c(=O)cc(C(=O)O[C@H]2C[C@H]3CC[C@@H](C2)N3C)c2ccccc21 [Compound 1Sa, Endo-(8-methyl-8-azabicyclo[3.2.1]oct-3-yl)-1-(n-butyl)-2-oxo-1,2-dihydro-4-quinolinecarboxylate] | 100 | 200 | 18.0 ± 1.6 | 44.3 ± 2.0 | 6.8 ± 2.0 | 71.5 ± 12.9 |
| CCCn1c(=O)cc(C(=O)O[C@H]2C[C@H]3CC[C@@H](C2)N3C)c2ccccc21 [Compound 2Sa, Endo-(8-methyl-B-azabicyclo[3.2.1]oct-3-yl)2-oxo-l-(n-propyl)-1,2-dihydro-4-quinolinecarboxylate] | 100 | 200 | – | – | – | – |
| CC(C)n1c(=O)cc(C(=O)O[C@H]2C[C@H]3CC[C@@H](C2)N3C)c2ccccc21 [Compound 3Sa, Endo-(8-methyl-8-azabicyclo[3.2.1]oct-3-yl)l-isopropyl-2-oxo-1,2-dihydro-4-quinolinecarboxylate] | 100 | 200 | – | – | – | – |
| CCCCn1c(=O)cc(C(=O)N[C@H]2C[C@H]3CC[C@@H](C2)N3C)c2ccccc21 [Compound 6Sa, Endo-N-(8-methyl-8-azabicyclo[3.2.1]oct-3-yl)-1-(n-butyl)-2-oxo-1,2-dihydro-4-quinolinecarboxamide] | > 100 | > 300 | – | – | – | – |
| CCCn1c(=O)cc(C(=O)N[C@H]2C[C@H]3CC[C@@H](C2)N3C)c2ccccc21 [Compound 7Sa, Endo-N-(8-methyl-8-azabicyclo[3.2.1]oct-3-yl)-1-(n-propyl)-2-oxo-1,2-dihydro-4-quinolinecarboxamide] | > 100 | > 300 | – | – | – | – |
| CN1[C@@H]2CC[C@H]1C[C@@H](NC(=O)c1cc(=O)n(C)c3ccccc13)C2 [Compound 8Sa, Endo-N-(8-methyl-8-azabicyclo[3.2.1]oct-3-yl)-1-methyl-2-oxo-1,2-dihydro-4-quinolinecarboxamide] | > 100 | > 300 | – | – | – | – |
| CCCCn1c(=O)cc(C(=O)N[C@@H]2C[C@H]3CC[C@@H](C2)N3C)c2ccccc21 [Compound 9Sa, Exo-N-(8-methyl-8-azabicyclo[3.2.1]oct-3-yl)-1-(n-butyl)-2-oxo-1,2-dihydro-4-quinolinecarboxamide] | 100 | > 300 | – | – | – | – |
| CCCCn1c(=O)cc(C(=O)N[C@H]2C[C@H]3CCC[C@@H](C2)N3C)c2ccccc21 [Compound 10Sa, Endo-N-(9-methyl-9-azabicyclo[3.3.1]non-3-yl)-1-(n-butyl)-2-oxo-1,2-dihydro-4-quinolinecarboxamide] | 100 | 300 | – | – | – | – |
| CCCCn1c(=O)c(C(=O)N[C@H]2C[C@H]3CC[C@@H](C2)N3C)c(O)c2ccccc21 [Compound 11Sa, Endo-N-(8-methyl-8-azabicyclo[3.2.1]oct-3-yl)-1-(n-butyl)-4-hydroxy-2-oxo-1,2-dihydro-3-quinolinecarboxamide] | > 100 | > 300 | – | – | – | – |
| CCn1c(=O)cc(C(=O)O[C@H]2C[C@H]3CC[C@@H](C2)N3C)c2ccccc21 [Compound 13Sa, Endo-(8-methyl-8-azabicyclo[3.2.1]oct-3-yl) 1-ethyl-2-oxo-1,2-dihydro-4-quinolinecarboxylate] | 100 | 200 | – | – | – | – |
| CC(C)Cn1c(=O)cc(C(=O)O[C@H]2C[C@H]3CC[C@@H](C2)N3C)c2ccccc21 [Compound 14Sa, Endo-(8-methyl-8-azabicyclo[3.2.1]oct-3-yl) 1-isobutyl-2-oxo-1,2-dihydro-4-quinolinecarboxylate] | 50 | 200 | – | – | – | – |
| CC(C)CCn1c(=O)cc(C(=O)O[C@H]2C[C@H]3CC[C@@H](C2)N3C)c2ccccc21 [Compound 15Sa, Endo-(8-methyl-8-azabicyclo[3.2.1]oct-3-yl) 1-isopentyl-2-oxo-1,2-dihydro-4-quinolinecarboxylate] | 100 | 300 | – | – | – | – |
| CCCCCn1c(=O)cc(C(=O)O[C@H]2C[C@H]3CC[C@@H](C2)N3C)c2ccccc21 [Compound 16Sa, Endo-(8-methyl-8-azabicyclo[3.2.1]oct-3-yl)2-oxo-1-n-pentyl-1,2-dihydro-4-quinolinecarboxylate] | 100 | 300 | – | – | – | – |
| CCCCCCn1c(=O)cc(C(=O)O[C@H]2C[C@H]3CC[C@@H](C2)N3C)c2ccccc21 [Compound 17Sa, Endo-(8-methyl-8-azabicyclo[3.2.1]oct-3-yl) 1-(n-hexyl)-2-oxo-1,2-dihydro-4-quinolinecarboxylate] | 100 | > 300 | – | – | – | – |
| CN1[C@@H]2CC[C@H]1C[C@@H](OC(=O)c1cc(=O)n(Cc3ccccc3)c3ccccc13)C2 [Compound 18Sa, Endo-(8-methyl-8-azabicyclo[3.2.1]oct-3-yl) 1-benzyl-2-oxo-1,2-dihydro-4-quinolinecarboxylate] | 100 | > 300 | – | – | – | – |
| CN1[C@@H]2CC[C@H]1C[C@@H](OC(=O)c1cc(=O)n(-c3ccccc3)c3ccccc13)C2 [Compound 19Sa, Endo-(8-methyl-8-azabicyclo[3.2.1]oct-3-yl) 2-oxo-1-phenyl-1,2-dihydro-4-quinolinecarboxylate] | 100 | 200 | – | – | – | – |
| CCCCn1c(=O)c(CC)c(C(=O)O[C@H]2C[C@H]3CC[C@@H](C2)N3C)c2ccccc21 [Compound 20Sa, Endo-(8-methyl-8-azabicyclo[3.2.1)oct-3-yl) 1-(n-butyl)-3-ethyl-2-oxo-1,2-dihydro-4-quinolinecarboxylate] | 100 | 200 | – | – | – | – |
| CN1[C@@H]2CC[C@H]1C[C@@H](OC(=O)c1c(O)c3cccnc3n(-c3ccccc3)c1=O)C2 [Compound 24Sa, Endo-(8-methyl-8-azabicyclo[3.2.1]oct-3-yl) 4-hydroxy-2-oxo-1-phenyl-1,2-dihydro-1,8-naphthylidine-3-carboxylate] | > 100 | > 300 | – | – | – | – |
| CCCCn1c(=O)c(O)c(C(=O)N[C@H]2C[C@H]3CC[C@@H](C2)N3C)c2ccccc21 [Compound 29Sa, Endo-N-(8-methyl-8-azabicyclo[3.2.1]oct-3-yl)-1-n-butyl-3-hydroxy-2-oxo-1,2-dihydro-4-quinolinecarboxamide] | > 100 | > 300 | – | – | – | – |
| CN1[C@@H]2CC[C@H]1C[C@@H](NC(=O)c1c(O)c3ccccc3n(-c3ccccc3)c1=O)C2 [Compound 30Sa, Endo-N-(8-methyl-8-azabicyclo[3.2.1]oct-3-yl)-4-hydroxy-2-oxo-1-phenyl-1,2-dihydro-3-quinolinecarboxamide] | 100 | > 300 | – | – | – | – |
| CCCCn1c(=O)c(C(=O)N[C@H]2C[C@H]3CC[C@@H](C2)N3C)c(O)c2cccnc21 [Compound 32Sa, Endo-N-(8-methyl-azabicyclo[3.2.1]oct-3-yl)-1-(butyl)-4-hydroxy-2-oxo-1,2-dihydro-1,8-naphthyridine-3-carboxamide] | 100 | > 300 | – | – | – | – |
